These results are taken from US11014956B2, “Compositions and methods for altering second messenger signaling” (Memorial Sloan Kettering Cancer Center, priority 2013, dated 2021).

The target of one assay is T1, cGAS (Mus musculus, UniProt Q8C6L5).
T1 construct: Purified recombinant full length (fl, amino acids 1-507) and truncated (tr, amino acids 147-507) murine cGAS; His6-SUMO (N, cleaved yes); made in house; host or cells: E. coli BL21 (DE3) RIL
As to the kind of experiment: cGAS activity assay, c[G(2′,5′)pA(3′,5′)p] formation by thin-layer chromatography. It counts as biochemical. The following applies: cGAS plus dsDNA. The text has this: To validate the structural results, we established an activity assay using thin-layer chromatography (FIG. 11) and monitored cyclic dinucleotide c[G(2′,5′)pA(3′,5′)p] formation from ATP and GTP using purified recombinant full-length and truncated cGAS proteins. cGAS required the presence of dsDNA and Mg^2+ or Mn^2+ for activity (FIG. 5A-B). […] The trace amount of c[G(2′,5′)pA(3′,5′)p]detected for the specific ssDNA used in this experiment was attributable to a stretch of sequence complementarity, and the substitution of G by 8-oxoguanine (8-oxoG) was sufficient to destabilize its predicted interaction and eliminate the residual cGAS activity.
Purified recombinant full length (fl, amino acids 1-507) and truncated (tr, amino acids 147-507) murine cGAS, including truncated mutant versions 1-6, were incubated in 20 μL reactions containing: 1 μM cGAS, 3.3 μM dsDNA, 5 mM MgCl2, 150 mM NaCl, 20 mM Tris-HCl, pH 7.5 at 25° C., 1 mM DTT, 10% glycerol, 1 mM each of nucleotides (typically ATP and GTP), and α^32P or γ^32P radiolabelled NTPs or dNTPs at 37° C. for 40 min. Reactions were stopped by addition of 20 μL of 50 mM EDTA. 2 μL of reaction solution was spotted onto high-performance TLC plates (HPTLC silica gel, 60 Å pores, F254, 10×10 cm, cat #1.05628.0001, EMD Millipore) and products were separated with Solvent 1 (NH4HCO3:C2H5OH:H2O [0.2 M:30%:70%], w:v:v) or 2 (NH4HCO3:C2H5OH:H2O [0.025 M:30%:70%], w:v:v) at 25° C. for 1 h. Reaction products were visualized by UV (254 nm) and phosphorimaging (Typhoon FLA 9500, GE Healthcare). Images were processed using Adobe Photoshop and Illustrator CS5. The TLC conditions used were largely based on a protocol established to separate 3′,5′ cAMP (Higashida et al, 2012).
The yield of c[G(2′,5′)pA(3′,5′)p] generated was calculated by densitometry analysis of TLC experiments, using FIJI (ImageJ 1.47i) or spectrophotemetrically (absorbance at 260 nm, E260=25.4×10^3) after purification from HPLC. For densitometry analyses, the fraction of α^32P-labelled c[G(2′,5′)pA(3′,5′)p] over total radioactivity per lane (c[G(2′,5′)pA(3′,5′)p]plus remaining α^32P-labelled ATP or GTP) was calculated.

The subject of another assay is THP 1 cells. As to conditions: concentrations as low as; cited from earlier work.
A further assay relates to Raw264.7 cells. As to conditions: concentrations as low as; cited from earlier work.

T1 sequence (Q8C6L5 whole entry, the tested form may be a part): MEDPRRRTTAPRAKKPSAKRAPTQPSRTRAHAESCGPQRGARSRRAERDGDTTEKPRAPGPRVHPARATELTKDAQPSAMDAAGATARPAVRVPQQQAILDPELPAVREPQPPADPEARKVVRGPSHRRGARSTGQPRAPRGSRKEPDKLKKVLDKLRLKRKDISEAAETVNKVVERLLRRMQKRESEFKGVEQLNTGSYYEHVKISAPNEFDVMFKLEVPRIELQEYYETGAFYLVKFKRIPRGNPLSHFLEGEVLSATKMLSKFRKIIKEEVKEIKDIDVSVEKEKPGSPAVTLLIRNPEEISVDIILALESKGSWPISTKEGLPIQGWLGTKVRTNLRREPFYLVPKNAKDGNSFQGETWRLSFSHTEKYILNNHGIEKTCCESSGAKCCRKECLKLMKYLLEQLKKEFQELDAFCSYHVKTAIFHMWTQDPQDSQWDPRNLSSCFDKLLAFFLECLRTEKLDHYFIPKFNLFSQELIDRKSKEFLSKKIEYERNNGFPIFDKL

As for `Nc1ncnc2c1ncn2[C@@H]1O[C@H](COP(=O)(O)OP(=O)(O)O)[C@@H](O)[C@H]1O` [ADP, reference compound], the “cyclic dinucleotide formation with the nucleotide as cGAS substrate in place of GTP or ATP (in words)” value (“cyclic dinucleotide formation” below) on cGAS is “reduced levels of c[G(2′,5′)pA(3′,5′)p]”.
As for `Nc1ncnc2c1ncn2[C@@H]1O[C@H](COP(=O)(O)O)[C@@H](O)[C@H]1O` [AMP, reference compound], at cGAS, the “cyclic dinucleotide formation” value was “no product or intermediate formation”.
`Nc1nc2c(ncn2[C@@H]2O[C@H](COP(=O)(O)OP(=O)(O)O)[C@@H](O)[C@H]2O)c(=O)[nH]1` [GDP, reference compound]: the “cyclic dinucleotide formation” value at cGAS is “reduced amount of the cylic-dinucleotide”.
As to `Nc1nc2c(ncn2[C@@H]2O[C@@H]3COP(=O)(O)O[C@H]4[C@@H](O)[C@H](n5cnc6c(N)ncnc65)O[C@@H]4COP(=O)(O)O[C@H]3[C@H]2O)c(=O)[nH]1` [c[G(3′,5′)pA(3′,5′)p]], the “concentration at which production of interferon is stimulated” value in the assay on THP 1 cells and with Raw264.7 cells was 10 nM in each case.
